Like-named read-outs stand apart in the source and are kept apart here.
Legend:
[1] = Phase 1/2 study Part A: safety and tolerability
Description: The study is designed as a Phase 1/2 trial consisting of two parts: dose escalation (Part A) and dose expansion (Part B).
Subsequently, a standard escalation dosing schedule with approximately 50% dose increments and 6 subjects per cohort will be initiated in order to establish the non-tolerated dose (NTD) and MTD. Smaller increments and additional subjects within a dose cohort may also be evaluated.
A dose will be considered to be non-tolerated if 2 evaluable subjects in a dose cohort experience dose-limiting toxicity (DLT). When a NTD is defined, dose escalation will be stopped. The MTD will be defined as the last dose tested below the NTD with 0 or 1 out of 6 evaluable subjects experiencing DLT during Cycle 1. An intermediate dose (i.e., one between the NTD and the last dose level before the NTD) or additional subjects within any dose cohort may be required to determine the MTD more precisely.
The safety variables for this study are adverse events, clinical laboratory variables, 12-lead ECGs (centrally reviewed), LVEF assessments, physical examinations and vital signs. In Part A, the decision to either evaluate a higher dose level or declare a MTD will be determined by the Safety Review Committee (SRC) each time all clinical and laboratory safety data for a given cohort is available for review. The SRC will also determine the dose, doses, or schedule appropriate for Part B. During Part B, the SRC will continue to review safety data regularly and make recommendations about the study continuation, as appropriate.
Part A: Accelerated Dose Escalation Results.

U87MG-Luc cells = assay: U87MG intracranial glioblastoma model; assay type: in vivo, Nude mice; conditions: up to 6 weeks
Description: U87MG Intracranial Glioblastoma Model (Compound 1). An intracranial glioblastoma study was conducted with U87MG cells transfected with luciferase (U87-MG-Luc). Nude mice were inoculated intracranially with U87MG-Luc cells into the brain. Following inoculation of animals, the tumors were allowed to grow for 7 days. On day 7 following tumor cell inoculation, the mice were imaged using Xenogen imaging system. The mice having tumors with an average flux ranging between 6.29×10^7 and 1.59×10^8 photons/sec were pooled together and randomized into various treatment groups. Compound 1 was formulated in 0.5% CMC and 0.25% Tween 80 in water (as a suspension). The animals were orally administered vehicle (CMC-Tween) or Compound 1 once daily (QD) for up to 6 weeks. Doses of Compound 1 ranged between 2.5 and 20 mg/kg. The positive control Temozolomide (10 mg/kg, QD) was administered via intra peritoneal (IP) route. Temozolomide was formulated in 5% N-methylpyrrolidone, 45% PEG400 and 50% saline. The animals were imaged for bioluminescence once a week using Xenogen imaging system and monitored for survival. Statistical analysis was performed using a log-rank test between Compound-treated and vehicle-treated control groups.
U87MG Intracranial Glioblastoma Model (Compound 2). […] The animals were imaged for bioluminescence once a week using Xenogen imaging system and monitored for survival. […]

NHL cell lines = assay: Apoptosis assay for NHL lines (panel statement); assay type: cell-based; conditions: multiple NHL cell lines in vitro; FIG. 2
Description: Apoptosis Assay for NHL Lines. Prior to testing, cells were grown and expanded in culture flasks to provide sufficient amounts of starting material. Cells were then diluted to their desired densities and added directly to compound-spotted 384-well plates. Cells were allowed to grow for 24 hours in 5% CO2 at 37° C. The apoptotic response was assessed by quantifying the activities of caspase 3 and caspase 7 (Caspase 3/7-Glo) in treated cells and control cells at the 24-hour time point. All data was normalized and represented as a value relative to the DMSO-treated cells. Results were then expressed as CalX, which is the minimum compound concentration required to double the levels of caspase 3/7 relative to those of the DMSO-treated cells during their treatment period.

RPMI = assay: Cell proliferation and viability assay for MM lines; assay type: cell-based; conditions: 5 days, 7AAD FACS
Description: (§1) Cell Proliferation and Viability Assay for MM Lines. Prior to use, cells were washed and maintained in medium for 5 days. Cells were seeded out at a density of 0.3×10^6 cells/mL in a 12-well plate and treated with Compound 1 or Compound 2 for 5 days. 7AAD detection fluorescence-activated cell sorting (FACS) flow cytometry was used in the analysis.

U266 = assay: as above; assay type: cell-based; conditions: U266, 5 days, 7AAD FACS
Description: as §1

DF15 = assay: as above; assay type: cell-based; conditions: DF15, 5 days, 7AAD FACS
Description: as §1

MM1.S = assay: as above; assay type: cell-based; conditions: 5 days, 7AAD FACS
Description: as §1

OPM2 = assay: as above; assay type: cell-based; conditions: OPM2, 5 days, 7AAD FACS
Description: as §1

H929 = assay: as above; assay type: cell-based; conditions: H929, 5 days, 7AAD FACS
Description: as §1

KMS34 = assay: as above; assay type: cell-based; conditions: KMS34, 5 days, 7AAD FACS
Description: as §1

LP-1 = assay: as above; assay type: cell-based; conditions: LP-1, 5 days, 7AAD FACS
Description: as §1

CAG = assay: as above; assay type: cell-based; conditions: 5 days, 7AAD FACS
Description: as §1

[2] = 120 h, read-out: IC50, Proliferation
[3] = 120 h, read-out: IC50, Viability
[4] = Homo sapiens, 120 h, read-out: IC50, Viability

## CO[C@H]1CC[C@H](N2C(=O)CNc3ncc(-c4ccc(C(C)(C)O)nc4)nc32)CC1 [Compound 1, 7-(6-(2-hydroxypropan-2-yl)pyridin-3-yl)-1-((1r,4r)-4-methoxycyclohexyl)-3,4-dihydropyrazino-[2,3-b]pyrazin-2(1H)-one]
[1]; 30 mg
  DLT: Grade 3 hyperglycemia
[1]; 45 mg
  DLT: grade 3 rash
[1]; 60 mg
  DLT: Fatigue and mucositis
[1]; 3rd dose level
  dose level of the first grade 2 related toxicity: 30 mg
[1]; N=28, 7.5 to 60 mg
  most frequent related events: Fatigue, GI toxicity (including mucositis/stomatitis), hyperglycemia, rash and arthralgia
[1]; once daily, oral
  MTD: 45 mg
  NTD: 60 mg
[1]; onset often during cycle 1, dose related
  Hyperglycemia: reported frequently
[1]; responded to steroid treatment
  interstitial pneumonitis: One case of grade 3 interstitial pneumonitis requiring hospitalization
[1]; toxicities comparable to other drugs targeting this pathway
  tolerability: well tolerated
U87MG-Luc cells; 2.5 to 20 mg/kg QD oral, FIG. 14
  survival: significantly prolonged the life
NHL cell lines
  apoptosis induction: induce apoptosis
RPMI; read-out: IC50, Proliferation
  IC50: 170 nM
RPMI; read-out: IC50, Viability
  IC50: 1100 nM
U266; read-out: IC50, Proliferation
  IC50: 560 nM
DF15; read-out: IC50, Proliferation
  IC50: 100 nM
DF15; read-out: IC50, Viability
  IC50: 850 nM
MM1.S; read-out: IC50, Proliferation
  IC50: 440 nM
MM1.S; read-out: IC50, Viability
  IC50: 1010 nM
OPM2; read-out: IC50, Proliferation
  IC50: 330 nM
OPM2; read-out: IC50, Viability
  IC50: 600 nM
H929; read-out: IC50, Proliferation
  IC50: 190 nM
H929; read-out: IC50, Viability
  IC50: 730 nM
KMS34; read-out: IC50, Proliferation
  IC50: 100 nM
KMS34; read-out: IC50, Viability
  IC50: 420 nM
LP-1; read-out: IC50, Proliferation
  IC50: 220 nM
CAG; read-out: IC50, Proliferation
  IC50: 800 nM
CAG; read-out: IC50, Viability
  IC50: 2600 nM

## CCN1C(=O)CNc2ncc(-c3ccc(-c4nc[nH]n4)nc3C)nc21 [Compound 2, 1-ethyl-7-(2-methyl-6-(1H-1,2,4-triazol-3-yl)pyridin-3-yl)-3,4-dihydropyrazino[2,3-b]pyrazin-2(1H)-one]
U87MG-Luc cells; 0.5 to 5 mg/kg QD oral, FIG. 16
  survival: significantly prolonged the life
NHL cell lines
  apoptosis induction: induce apoptosis
RPMI; [2]
  IC50: 150 nM
RPMI; [3]
  IC50: 450 nM
U266; Homo sapiens, U-266, 120 h, read-out: IC50, Proliferation
  IC50: 320 nM
U266; Homo sapiens, U-266, 120 h, read-out: IC50, Viability
  IC50: 4290 nM
DF15; [2]
  IC50: 50 nM
DF15; [3]
  IC50: 570 nM
MM1.S; [4]
  IC50: 850 nM
OPM2; Homo sapiens, OPM-2, 120 h, read-out: IC50, Proliferation
  IC50: 370 nM
OPM2; Homo sapiens, OPM-2, 120 h, read-out: IC50, Viability
  IC50: 510 nM
H929; Homo sapiens, NCI-H929, 120 h, read-out: IC50, Proliferation
  IC50: 130 nM
H929; Homo sapiens, NCI-H929, 120 h, read-out: IC50, Viability
  IC50: 400 nM
KMS34; KMS-34, 120 h, read-out: IC50, Proliferation
  IC50: 70 nM
KMS34; KMS-34, 120 h, read-out: IC50, Viability
  IC50: 120 nM
LP-1; Homo sapiens, 120 h, read-out: IC50, Proliferation
  IC50: 160 nM
LP-1; [4]
  IC50: 830 nM
CAG; [2]
  IC50: 410 nM
CAG; [3]
  IC50: 1500 nM

From US9493466B2, “Treatment of cancer with TOR kinase inhibitors” (Signal Pharmaceuticals, LLC, priority 2011, dated 2016)
